Calls of active or inactive are those of the source. No cut-off for these calls is given here.
Legend:
Cholinesterase [1] = molecular target: T1, Cholinesterase (Homo sapiens, UniProt P06276)
Description: Inhibition of human plasmatic BuChE assessed as reduction in cholinesterase activity by Ellman's method

[2] = molecular target: T2, Glutamate NMDA receptor; GRIN1/GRIN2A (Homo sapiens, UniProt Q05586+Q12879); assay: Inhibition of human GluN1a/GluN2A receptor expressed in HEK293 cells assessed as relative inhibition of glycine/glutamate-induced current at 100 uM measured at +40 mV holding potential by whole-cell patch clamp method; assay type: cell-based
[3] = molecular target: T3, Glutamate NMDA receptor; GRIN1/GRIN2B (Homo sapiens, UniProt Q05586+Q13224)
T3 sequence (Q13224 whole entry, looked up, other chains not shown): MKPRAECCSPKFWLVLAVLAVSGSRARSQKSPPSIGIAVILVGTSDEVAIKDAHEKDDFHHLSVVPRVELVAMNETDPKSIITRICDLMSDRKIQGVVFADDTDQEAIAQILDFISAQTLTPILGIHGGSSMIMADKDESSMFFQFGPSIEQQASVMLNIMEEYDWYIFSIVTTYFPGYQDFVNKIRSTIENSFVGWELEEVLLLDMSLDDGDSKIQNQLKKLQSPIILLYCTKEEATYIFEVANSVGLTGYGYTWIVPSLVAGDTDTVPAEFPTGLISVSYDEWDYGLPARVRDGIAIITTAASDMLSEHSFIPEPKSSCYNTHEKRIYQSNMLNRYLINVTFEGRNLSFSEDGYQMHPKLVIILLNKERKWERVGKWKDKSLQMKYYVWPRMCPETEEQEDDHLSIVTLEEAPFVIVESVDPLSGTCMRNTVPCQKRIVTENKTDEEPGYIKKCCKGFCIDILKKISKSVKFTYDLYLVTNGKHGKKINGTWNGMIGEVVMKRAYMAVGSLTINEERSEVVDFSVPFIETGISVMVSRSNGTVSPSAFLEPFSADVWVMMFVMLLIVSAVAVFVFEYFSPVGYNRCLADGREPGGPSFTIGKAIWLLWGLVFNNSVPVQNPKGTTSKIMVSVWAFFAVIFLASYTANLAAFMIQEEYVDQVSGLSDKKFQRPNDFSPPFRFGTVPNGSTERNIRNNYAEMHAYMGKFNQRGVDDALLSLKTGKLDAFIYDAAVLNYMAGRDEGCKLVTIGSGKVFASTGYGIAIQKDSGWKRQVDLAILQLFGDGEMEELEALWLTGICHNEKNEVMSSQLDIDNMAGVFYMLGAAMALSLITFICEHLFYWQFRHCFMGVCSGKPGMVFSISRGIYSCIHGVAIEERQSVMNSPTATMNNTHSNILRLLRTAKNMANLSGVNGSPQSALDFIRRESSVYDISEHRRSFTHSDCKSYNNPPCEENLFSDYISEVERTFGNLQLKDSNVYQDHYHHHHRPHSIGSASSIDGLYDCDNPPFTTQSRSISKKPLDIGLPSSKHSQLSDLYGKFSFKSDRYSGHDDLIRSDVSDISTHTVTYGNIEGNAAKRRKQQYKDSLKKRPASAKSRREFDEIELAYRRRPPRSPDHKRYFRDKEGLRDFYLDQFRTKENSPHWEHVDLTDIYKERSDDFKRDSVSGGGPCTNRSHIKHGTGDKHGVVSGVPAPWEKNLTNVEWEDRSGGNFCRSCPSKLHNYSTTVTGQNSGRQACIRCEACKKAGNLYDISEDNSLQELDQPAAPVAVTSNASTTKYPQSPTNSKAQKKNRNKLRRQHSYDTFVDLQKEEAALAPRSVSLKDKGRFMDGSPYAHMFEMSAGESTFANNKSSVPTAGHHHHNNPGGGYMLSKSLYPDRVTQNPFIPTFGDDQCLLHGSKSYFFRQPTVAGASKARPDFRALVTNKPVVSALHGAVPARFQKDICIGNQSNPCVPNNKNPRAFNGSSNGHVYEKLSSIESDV
Description: Inhibition of human GluN1a/GluN2B receptor expressed in HEK293 cells assessed as inhibition of glycine/glutamate-induced current measured at -60 mV holding potential by whole-cell patch clamp method

Acetylcholinesterase = Acetylcholinesterase (Homo sapiens, UniProt P22303)
Sequence of Acetylcholinesterase (P22303 whole entry): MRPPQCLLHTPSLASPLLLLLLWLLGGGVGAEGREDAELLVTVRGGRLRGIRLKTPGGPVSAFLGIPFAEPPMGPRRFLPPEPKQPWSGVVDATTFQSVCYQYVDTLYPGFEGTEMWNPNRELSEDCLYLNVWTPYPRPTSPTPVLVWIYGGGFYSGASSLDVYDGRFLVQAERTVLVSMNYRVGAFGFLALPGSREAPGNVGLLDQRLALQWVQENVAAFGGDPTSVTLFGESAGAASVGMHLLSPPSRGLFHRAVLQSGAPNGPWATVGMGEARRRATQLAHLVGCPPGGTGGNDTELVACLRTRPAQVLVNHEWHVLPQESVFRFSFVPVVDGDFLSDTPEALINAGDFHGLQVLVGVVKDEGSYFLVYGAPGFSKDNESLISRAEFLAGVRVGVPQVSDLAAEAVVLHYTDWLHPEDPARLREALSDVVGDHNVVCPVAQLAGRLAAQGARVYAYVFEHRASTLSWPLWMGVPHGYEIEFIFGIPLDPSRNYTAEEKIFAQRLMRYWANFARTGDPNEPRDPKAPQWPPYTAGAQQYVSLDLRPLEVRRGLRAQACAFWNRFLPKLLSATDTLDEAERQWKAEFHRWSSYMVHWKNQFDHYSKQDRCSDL
Description: Inhibition of human recombinant AChE assessed as reduction in cholinesterase activity using acetylthiocholine iodide as substrate by Ellman's method

[4] = molecular target: T2, Glutamate NMDA receptor; GRIN1/GRIN2A
Description: Inhibition of human GluN1a/GluN2A receptor expressed in HEK293 cells assessed as inhibition of glycine/glutamate-induced current measured at -60 mV holding potential by whole-cell patch clamp method

Rattus norvegicus [5] = assay: Effect on spontaneous locomotory activity in Wistar rat at 1 mg/kg, ip measured for 10 mins by open field test; assay type: functional, organism-based
[6] = Toxicity in Wistar rat assessed as prepulse inhibition of acoustic startle response at 1 to 5 mg/kg, ip measured for 10 mins by open field test relative to control; assay type: organism-based; details: in vivo, dose 1-5 mg/kg
[7] = Drug uptake in ICR mouse brain at 5 mg/kg, ip measured after 15 mins by HPLC-MS analysis; assay type: ADME, organism-based; details: read-out: Drug uptake
[8] = Drug uptake in ICR mouse plasma at 5 mg/kg, ip measured after 15 mins by HPLC-MS analysis; assay type: ADME, organism-based
Rattus norvegicus [9] = assay: Reduction in total distance travelled in Wistar rat at 5 mg/kg, ip measured for 10 mins by open field test relative to control; assay type: functional, organism-based
[10] = molecular target: T3, Glutamate NMDA receptor; GRIN1/GRIN2B; remark: listed apart in the source
Description: Inhibition of human GluN1a/GluN2B receptor expressed in HEK293 cells assessed as relative inhibition of glycine/glutamate-induced current measured at +40 mV holding potential by whole-cell patch clamp method

[11] = Drug uptake in ICR mouse plasma at 5 mg/kg, ip measured after 60 mins by HPLC-MS analysis; assay type: ADME, organism-based
[12] = molecular target: T2, Glutamate NMDA receptor; GRIN1/GRIN2A; remark: listed apart in the source
Description: Inhibition of human GluN1a/GluN2A receptor expressed in HEK293 cells assessed as relative inhibition of glycine/glutamate-induced current measured at +40 mV holding potential by whole-cell patch clamp method

[13] = Drug uptake in ICR mouse brain at 5 mg/kg, ip measured after 60 mins by HPLC-MS analysis; assay type: ADME, organism-based; details: read-out: Drug uptake
[14] = Ratio of drug level in brain to plasma in ICR mouse at 5 mg/kg, ip measured after 15 mins by HPLC-MS analysis; assay type: ADME, organism-based; details: brain and plasma, read-out: BBR
Cholinesterase [15] = molecular target: T1, Cholinesterase; assay: Inhibition of human plasmatic BuChE assessed as reduction in cholinesterase activity at 100 uM by Ellman's method
[16] = Toxicity in Wistar rat assessed as hyperlocomotion at 5 mg/kg, ip measured for 10 mins by open field test relative to control; assay type: organism-based; details: in vivo
Rattus norvegicus [17] = assay: Effect on spontaneous locomotory activity in Wistar rat at 5 mg/kg, ip measured for 10 mins by open field test; assay type: functional, organism-based
[18] = Toxicity in Wistar rat assessed as prepulse inhibition of acoustic startle response at 0.3 mg/kg, ip measured for 10 mins by open field test relative to control; assay type: organism-based; details: in vivo

T1 sequence (P06276 whole entry): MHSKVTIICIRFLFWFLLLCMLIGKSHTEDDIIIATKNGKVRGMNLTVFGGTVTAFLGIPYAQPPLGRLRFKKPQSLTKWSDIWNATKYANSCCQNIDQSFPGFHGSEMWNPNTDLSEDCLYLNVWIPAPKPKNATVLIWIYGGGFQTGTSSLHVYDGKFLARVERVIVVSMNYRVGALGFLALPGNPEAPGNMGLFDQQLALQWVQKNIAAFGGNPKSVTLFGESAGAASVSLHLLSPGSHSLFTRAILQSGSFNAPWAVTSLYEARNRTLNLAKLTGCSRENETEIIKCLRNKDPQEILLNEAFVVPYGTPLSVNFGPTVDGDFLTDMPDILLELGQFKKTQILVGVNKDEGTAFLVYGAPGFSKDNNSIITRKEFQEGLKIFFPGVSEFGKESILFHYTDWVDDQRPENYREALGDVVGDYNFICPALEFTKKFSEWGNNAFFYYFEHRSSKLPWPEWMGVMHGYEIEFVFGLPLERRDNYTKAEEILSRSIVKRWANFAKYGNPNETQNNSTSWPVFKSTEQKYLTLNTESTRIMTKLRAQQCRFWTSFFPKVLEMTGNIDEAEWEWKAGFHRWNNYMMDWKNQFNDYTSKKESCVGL

Compound: Nc1c2c(nc3c(Br)cc(Br)cc13)CCCCC2
- IC50 (Cholinesterase [1]): 89.9 µM
- inhibition [2]: 80.7%
- IC50 [3]: 26.9 µM
- IC50 (Acetylcholinesterase): 15.1 µM
- IC50 [4]: 21.5 µM

Compound: Nc1c2c(nc3c(Cl)cc(Cl)cc13)CCC2
- IC50 (Cholinesterase [1]): 17.9 µM
- inhibition [2]: 33.5%
- IC50 [3]: 21.4 µM
- IC50 (Acetylcholinesterase): 13.1 µM
- IC50 [4]: 14.6 µM

Compound: Cc1ccc2c(N)c3c(nc2c1)CCCC3.Cl
- Activity (Rattus norvegicus [5]): inactive
- IC50 (Cholinesterase [1]): 2.9 µM
- Activity [6]: Non-Toxic
- concentration at 0.25 h [7]: 731 nM
- concentration at 0.25 h [8]: 1300 nM
- Activity (Rattus norvegicus [9]): Active
- IC50 [10]: 41.8 µM
- concentration at 1 h [11]: 87 nM
- IC50 [12]: 98.6 µM
- inhibition [2]: 51.3%
- concentration at 1 h [13]: 251 nM
- IC50 [3]: 7.83 µM
- IC50 (Acetylcholinesterase): 0.072 µM
- IC50 [4]: 17 µM
- Kp at 0.25 h [14]: 56

Compound: Nc1c2c(nc3ccc(Br)cc13)CCCCC2
- IC50 (Cholinesterase [1]): 15.1 µM
- inhibition [2]: 57.7%
- IC50 [3]: 11.8 µM
- IC50 (Acetylcholinesterase): 13.8 µM
- IC50 [4]: 13.8 µM

Compound: Cc1ccc2nc3c(c(N)c2c1)CCCC3
- IC50 (Cholinesterase [1]): 13.7 µM
- inhibition [2]: 18.5%
- IC50 [3]: 13.2 µM
- IC50 (Acetylcholinesterase): 15.5 µM
- IC50 [4]: 12.3 µM

Compound: Nc1c2c(nc3ccc(F)cc13)CCC2
- IC50 (Cholinesterase [1]): 1.91 µM
- inhibition [2]: 28.7%
- IC50 [3]: 30.3 µM
- IC50 (Acetylcholinesterase): 0.662 µM
- IC50 [4]: 28 µM

Compound: Nc1c2c(nc3cccc(Cl)c13)CCC2
- inhibition (Cholinesterase [15]): 6%
- inhibition [2]: 24.5%
- IC50 [3]: 44.9 µM
- IC50 [4]: 27 µM

Compound: Nc1c2c(nc3c(Cl)cc(Cl)cc13)CCCCC2
- IC50 (Cholinesterase [1]): 23.8 µM
- inhibition [2]: 38.5%
- IC50 [3]: 37.9 µM
- IC50 (Acetylcholinesterase): 9.04 µM
- IC50 [4]: 20 µM

Compound: Cl.Nc1c2c(nc3ccc(Br)cc13)CCCC2
- Activity (Rattus norvegicus [5]): inactive
- IC50 (Cholinesterase [1]): 20.8 µM
- Activity [6]: Non-Toxic
- concentration at 0.25 h [7]: 1380 nM
- concentration at 0.25 h [8]: 1330 nM
- Activity (Rattus norvegicus [9]): Active
- IC50 [10]: 12.8 µM
- concentration at 1 h [11]: 170 nM
- IC50 [12]: 45.9 µM
- inhibition [2]: 79.3%
- concentration at 1 h [13]: 218 nM
- IC50 [3]: 7.8 µM
- IC50 (Acetylcholinesterase): 4.79 µM
- IC50 [4]: 6.58 µM
- Kp at 0.25 h [14]: 103

Compound: Cc1ccc2nc3c(c(N)c2c1)CCCCC3
- IC50 (Cholinesterase [1]): 10.6 µM
- inhibition [2]: 40.1%
- IC50 [3]: 16.6 µM
- IC50 (Acetylcholinesterase): 22.5 µM
- IC50 [4]: 27.1 µM

Compound: Nc1c2c(nc3c(Br)cc(Br)cc13)CCC2
- inhibition (Cholinesterase [15]): 34%
- inhibition [2]: 55.7%
- IC50 [3]: 17.1 µM
- IC50 (Acetylcholinesterase): 15.1 µM
- IC50 [4]: 10.2 µM

Compound: Cc1ccc2c(N)c3c(nc2c1)CCC3
- IC50 (Cholinesterase [1]): 8.44 µM
- inhibition [2]: 53.6%
- IC50 [3]: 15.6 µM
- IC50 (Acetylcholinesterase): 0.347 µM
- IC50 [4]: 7.68 µM

Compound: Cc1cccc2nc3c(c(N)c12)CCCCC3
- IC50 (Cholinesterase [1]): 0.107 µM
- inhibition [2]: 54.3%
- IC50 [3]: 17.4 µM
- IC50 (Acetylcholinesterase): 0.255 µM
- IC50 [4]: 12.6 µM

Compound: Nc1c2c(nc3cccc(Cl)c13)CCCC2
- IC50 (Cholinesterase [1]): 0.062 µM
- inhibition [2]: 35%
- IC50 [3]: 23.7 µM
- IC50 (Acetylcholinesterase): 0.0334 µM
- IC50 [4]: 19.6 µM

Compound: Cc1ccc2nc3c(c(N)c2c1)CCC3
- IC50 (Cholinesterase [1]): 23.7 µM
- inhibition [2]: 30.8%
- IC50 [3]: 19.8 µM
- IC50 (Acetylcholinesterase): 10 µM
- IC50 [4]: 20.5 µM

Compound: Nc1c2c(nc3c(Br)cc(Br)cc13)CCCC2
- IC50 (Cholinesterase [1]): 32 µM
- inhibition [2]: 67.7%
- IC50 [3]: 18.7 µM
- IC50 (Acetylcholinesterase): 5.18 µM
- IC50 [4]: 15.6 µM

Compound: Cc1cccc2nc3c(c(N)c12)CCC3
- IC50 (Cholinesterase [1]): 0.471 µM
- inhibition [2]: 22%
- IC50 [3]: 16.6 µM
- IC50 (Acetylcholinesterase): 0.415 µM
- IC50 [4]: 21.3 µM

Compound: Nc1c2c(nc3ccc(Cl)cc13)CCCCC2
- IC50 (Cholinesterase [1]): 10.3 µM
- inhibition [2]: 43%
- IC50 [3]: 12 µM
- IC50 (Acetylcholinesterase): 8.6 µM
- IC50 [4]: 20.2 µM

Compound: Cl.Nc1c2c(nc3cccc(Cl)c13)CCCCC2
- Activity (Rattus norvegicus [5]): inactive
- Activity [16]: Toxic
- IC50 (Cholinesterase [1]): 0.311 µM
- Activity [6]: Non-Toxic
- concentration at 0.25 h [7]: 762 nM
- concentration at 0.25 h [8]: 2290 nM
- Activity (Rattus norvegicus [9]): Active
- IC50 [10]: 146 µM
- concentration at 1 h [11]: 185 nM
- IC50 [12]: 112 µM
- Activity (Rattus norvegicus [17]): inactive
- inhibition [2]: 46.7%
- concentration at 1 h [13]: 32 nM
- IC50 [3]: 22.1 µM
- IC50 (Acetylcholinesterase): 223 µM
- IC50 [4]: 7.29 µM
- Kp at 0.25 h [14]: 33

Compound: COc1ccc2nc3c(c(N)c2c1)CCCCC3
- IC50 (Cholinesterase [1]): 4.41 µM
- inhibition [2]: 53.6%
- IC50 [3]: 7.67 µM
- IC50 (Acetylcholinesterase): 17.6 µM
- IC50 [4]: 20 µM

Compound: Cc1ccc2c(N)c3c(nc2c1)CCCCC3
- IC50 (Cholinesterase [1]): 1 µM
- inhibition [2]: 50%
- IC50 [3]: 9.29 µM
- IC50 (Acetylcholinesterase): 0.104 µM
- IC50 [4]: 15.2 µM

Compound: COc1ccc2nc3c(c(N)c2c1)CCCC3.Cl
- concentration at 0.25 h [7]: 2320 nM
- concentration at 0.25 h [8]: 1670 nM
- IC50 [10]: 51 µM
- concentration at 1 h [11]: 207 nM
- IC50 [12]: 49.3 µM
- inhibition [2]: 77.6%
- concentration at 1 h [13]: 326 nM
- IC50 [3]: 7.24 µM
- IC50 [4]: 4.7 µM

Compound: Cl.Nc1c2c(nc3ccc(Br)cc13)CCC2
- Activity (Rattus norvegicus [5]): inactive
- IC50 (Cholinesterase [1]): 16.9 µM
- Activity [6]: Non-Toxic
- concentration at 0.25 h [7]: 1180 nM
- concentration at 0.25 h [8]: 2520 nM
- Activity (Rattus norvegicus [9]): Active
- IC50 [10]: 23 µM
- concentration at 1 h [11]: 154 nM
- IC50 [12]: 51.3 µM
- inhibition [2]: 75.3%
- concentration at 1 h [13]: 116 nM
- IC50 [3]: 6.9 µM
- IC50 (Acetylcholinesterase): 5.69 µM
- IC50 [4]: 6.12 µM
- Kp at 0.25 h [14]: 47

Compound: Nc1c2c(nc3ccc(Cl)cc13)CCCC2
- IC50 (Cholinesterase [1]): 6.72 µM
- inhibition [2]: 47.5%
- IC50 [3]: 9.82 µM
- IC50 (Acetylcholinesterase): 1.94 µM
- IC50 [4]: 14.8 µM

Compound: Cc1cccc2nc3c(c(N)c12)CCCC3
- IC50 (Cholinesterase [1]): 0.495 µM
- inhibition [2]: 40.5%
- IC50 [3]: 14.2 µM
- IC50 (Acetylcholinesterase): 0.125 µM
- IC50 [4]: 18.5 µM

Compound: Cl.Nc1c2c(nc3ccc(Cl)cc13)CCC2
- Activity (Rattus norvegicus [5]): inactive
- IC50 (Cholinesterase [1]): 6.88 µM
- Activity [6]: Non-Toxic
- concentration at 0.25 h [7]: 1000 nM
- concentration at 0.25 h [8]: 1660 nM
- Activity (Rattus norvegicus [9]): Active
- IC50 [10]: 27.7 µM
- concentration at 1 h [11]: 389 nM
- IC50 [12]: 84.2 µM
- inhibition [2]: 56.5%
- concentration at 1 h [13]: 173 nM
- IC50 [3]: 8.69 µM
- IC50 (Acetylcholinesterase): 1.58 µM
- IC50 [4]: 21 µM
- Kp at 0.25 h [14]: 61

Compound: COc1ccc2nc3c(c(N)c2c1)CCC3
- IC50 (Cholinesterase [1]): 10.6 µM
- IC50 [10]: 88.9 µM
- IC50 [12]: 66.8 µM
- inhibition [2]: 66.1%
- IC50 [3]: 14.6 µM
- IC50 (Acetylcholinesterase): 8.22 µM
- IC50 [4]: 4.16 µM

Compound: C[C@]12N[C@H](Cc3ccccc31)c1ccccc12 [DIZOCILPINE]
- Activity [18]: Toxic

Compound: Nc1c2c(nc3c(Cl)cc(Cl)cc13)CCCC2
- IC50 (Cholinesterase [1]): 14.8 µM
- inhibition [2]: 38.2%
- IC50 [3]: 37.1 µM
- IC50 (Acetylcholinesterase): 4.34 µM
- IC50 [4]: 24 µM

Compound: Nc1c2c(nc3ccc(F)cc13)CCCC2
- IC50 (Cholinesterase [1]): 0.751 µM
- inhibition [2]: 41.9%
- IC50 [3]: 21.3 µM
- IC50 (Acetylcholinesterase): 0.978 µM
- IC50 [4]: 15.4 µM

Compound: Nc1c2c(nc3ccc(F)cc13)CCCCC2
- IC50 (Cholinesterase [1]): 0.569 µM
- inhibition [2]: 38.5%
- IC50 [3]: 19.8 µM
- IC50 (Acetylcholinesterase): 0.624 µM
- IC50 [4]: 14.5 µM

— ChEMBL document CHEMBL4814070 (Eur J Med Chem, 2021)
